For data set [1] the following is noted: rabbit; blood samples before and at 10, 20 and 30 minutes after start of drug delivery; FIG. 18.
Description: The device was placed into the maxillary sinus of a rabbit by perforating the maxillary sinus mucosa from the connective tissue side and placing the implant tip into the sinus cavity and above the epithelial layer. […] Whole body perfusion was done using a peristaltic pump with warm physiological saline for 20 minutes at a controlled rate. The perfused brain was then resected at the end one hour from the start of the procedure. Brain samples from different parts of the brain was analyzed using High Performance Liquid Chromatography. […] During the procedure, a blood sample was collected before drug delivery. Three blood samples were then collected at intervals of 10, 20 and 30 minutes respectively following start of drug delivery. The samples were analyzed using High Performance Liquid Chromatography.
For data set [2] the following is noted: rabbit. The source says:
The device was surgically placed in a rabbit in the maxillary sinus region by removing the bone overlying the respiratory mucosa. The tip of the device was placed beneath the maxillary sinus lining mucosa in contact with the connective tissue side of the mucosa. […] FIG. 15 refers to the comparative brain values of dopamine using High Performance Liquid Chromatography, between the control and the rabbit in which dopamine was delivered in vivo in a continuous and controlled manner under the maxillary sinus mucosa using the drug delivery system. […] The drug delivery was stopped at the twentieth minute. […] FIG. 16 refers to blood values of dopamine in the rabbit after in vivo delivery of dopamine under the maxillary sinus mucosa using the device.

Consider two compounds from patent publication US11207461B2, “Drug delivery system and method for controlled and continuous delivery of drugs into the brain by bypassing the blood brain barrier” (priority 2015, dated 2021).

SMILES strings stand for the structures.

On to `CCN(CC)CC(=O)Nc1c(C)cccc1C` [Lignocaine], for which the “blood values of lignocaine (HPLC), drug in peripheral circulation” value in data set [1] was “no drug in the peripheral circulation”.

For the compound `NCCc1ccc(O)c(O)c1` [Dopamine], the “blood value of dopamine (HPLC) after drug delivery was stopped” value in data set [2] (blood sample at 30 minutes, delivery stopped at the twentieth minute, FIG. 16) was “peaked again”. Further, the “blood values of dopamine (HPLC) during drug delivery” value in data set [2] (blood samples at 10 and 20 minutes after start of drug delivery, versus sample before delivery, FIG. 16) is given as “dipped”. Also, the “drug in peripheral circulation during drug delivery” value in data set [2] (dopamine infused under maxillary sinus mucosa, during the 20 minute delivery) is on record as “no increase of the drug in peripheral circulation”. Besides, the “brain concentration of dopamine (HPLC) compared with the normal” value in data set [2] (infused under maxillary sinus mucosa for twenty minutes at 1 milliliter per hour, perfused brain resected at one hour, samples from different parts of the brain, FIG. 15) was “increased concentration of dopamine in all parts of the brain except diencephalon”.
